# EP0236230A1, “Aqueous suspensions containing at least one compound chosen from 6,7-dihydrobenzoquinolizine carboxylic acids, and their use in the treatment of plants” (RIKER LABORATORIES, INC., priority 1986, dated 1987)
# Legend:
# PSEUDOMONAS VIRIDIFLAVA = assay: Minimal inhibitory concentration (CMI) at varying pH; format: cell-based
# From the text: (§1) Une autre conséquence inattendue de la valeur du pH est l'influence sur l'activité antibactérienne elle-même. Selon l'invention, c'est en milieu pH acide que l'on obtient la meilleure activité antibactérienne.
# (§2) A titre d'exemple, on donne ci-après les concentrations minimales inhibitrices (CMI) obtenues vis-à-vis de quelques bactéries phytopathogènes en faisant varier le pH.
# ERWINIA AMYLOVORA = assay: as above; format: cell-based
# From the text: as §1, §2
# XANTHOMONAS CYNARAE = assay: as above; format: cell-based
# From the text: as §1, §2
# XANTHOMONAS PRUNI = assay: as above; format: cell-based
# From the text: as §1, §2
# PSEUDOMONAS SYRINGAE = assay: as above; format: cell-based
# From the text: as §1, §2
# physchem = settings: water
# From the text: Une deuxième solution consiste à diminuer la solubilité du produit.
compound,measurement,setting,value
"CC1CCc2cc(F)cc3c(=O)c(C(=O)O)cn1c23 (centres unmarked) [Fluméquine, acide [1H-5H] dihydro-6,7 fluoro-9 méthyl-5 oxo-1 benzo [i,j] quinolizine carboxylique-2]",concentrations minimales inhibitrices (CMI),PSEUDOMONAS VIRIDIFLAVA; pH 5,1
same,concentrations minimales inhibitrices (CMI),"PSEUDOMONAS VIRIDIFLAVA; pH 6,5",2
same,concentrations minimales inhibitrices (CMI),"PSEUDOMONAS VIRIDIFLAVA; pH 7,4",4
same,concentrations minimales inhibitrices (CMI),ERWINIA AMYLOVORA; pH 5,"0,1"
same,concentrations minimales inhibitrices (CMI),"ERWINIA AMYLOVORA; pH 6,5","0,5"
same,concentrations minimales inhibitrices (CMI),"ERWINIA AMYLOVORA; pH 7,4",1
same,concentrations minimales inhibitrices (CMI),XANTHOMONAS CYNARAE; pH 5,"0,5"
same,concentrations minimales inhibitrices (CMI),"XANTHOMONAS CYNARAE; pH 6,5",1
same,concentrations minimales inhibitrices (CMI),"XANTHOMONAS CYNARAE; pH 7,4",2
same,concentrations minimales inhibitrices (CMI),XANTHOMONAS PRUNI; pH 5,"0,25"
same,concentrations minimales inhibitrices (CMI),"XANTHOMONAS PRUNI; pH 6,5",1
same,concentrations minimales inhibitrices (CMI),"XANTHOMONAS PRUNI; pH 7,4",2
same,concentrations minimales inhibitrices (CMI),PSEUDOMONAS SYRINGAE; pH 5,"0,5"
same,concentrations minimales inhibitrices (CMI),"PSEUDOMONAS SYRINGAE; pH 6,5",2
same,concentrations minimales inhibitrices (CMI),"PSEUDOMONAS SYRINGAE; pH 7,4",4
same,solubility,"physchem; pH 5, water",~100 µg/mL
same,solubility,"physchem; pH 7, water",300 to 400 µg/mL
